Legend:
[1] = test system: canine uterine regenerative cells (mesenchymal stem cell populations obtained from canine uterine tissue); test: Clumping of thawed previously-cryopreserved cells in saline bags with candidate anti-clumping agents; type: cell-based
Procedure: The cells used in this Example were purified mesenchymal stem cell populations obtained from canine uterine tissue (from passage 5). The cells were frozen in cryovials in 2% DMSO in VetStarch. The frozen cell samples were provided as 2 mL aliquots with a cell density of 10 million cells/mL. Cells from 3 different canine donors were included n the testing, labeled herein as Donor1; Donor2 and Donor3.
Experiments were performed in 50 mL bags commonly used for saline solutions to be administered to the bloodstream of patients. The experimental volume for the prepared cell suspension was between 5-10 mL depending on the run. Chemicals tested for their anti-clumping ability included dextrose, hydroxyethyl starch, and trehalose. Concentrations of these chemicals varied between experiments. Solutions of anti-clumping agents were prepared then injected into the bags. Concentration and volumes were computed so that targeted concentrations of anti-clumping agents were reached once the cells were injected in the bag. Volumes were chosen so that the cells were at one million cells/mL after preparation of the final composition in the bags.
Cryovials containing the cells were thawed in a 37° C. water bath until ice crystals just thawed. Cells were drawn out of the vial through a needle septum of the vial with an 18 gauge needle and slowly added to the bag through a needle septum of the bag so as not to lyse the cells. The vial was then washed with saline and this wash volume was also carefully injected into the bag through the needle septum.

[2] = test system: canine uterine regenerative cells (mesenchymal stem cell populations obtained from canine uterine tissue); test: Post-bag cell viability by trypan blue staining; type: cell-based
Procedure: After time in the bag had expired, the cells were carefully removed from the bag with a syringe and 18 gauge needles. This volume was carefully placed in a 50 mL conical flask. It was mixed to ensure even distribution of cells, then mixed 1:1 with trypan blue and counted to determine viability. The volume was then centrifuged at 400 g for 5 minutes, supernatant aspirated, and resuspended in 2mL complete media. 1 mL of this cell suspension was then plated into a T25 flask. 24 hours later, the plates were observed and the condition of the cells noted.

[3] = Donor2 cells, 1 million/mL, trehalose 1.65%
[4] = Donor2 cells, 1 million/mL, trehalose 3.3%
[5] = summary, previously-cryopreserved cells after thawing

## OC[C@H]1O[C@H](O[C@H]2O[C@H](CO)[C@@H](O)[C@H](O)[C@H]2O)[C@H](O)[C@@H](O)[C@@H]1O [trehalose, (2R,3S,4S,5R,6R)-2-(hydroxymethyl)-6-[(2R,3R,4S,5S,6R)-3,4,5-trihydroxy-6-(hydroxymethyl)oxan-2-yl]oxyoxane-3,4,5-triol]
[1]; Donor1 cells (section 1.7 run), 1 million/mL, trehalose 3.3%
  clumps after 80 minutes: essentially all clumps were very small and barely visible with the exception of one or two slightly larger clumps
[1]; Donor1 cells (section 1.7 run), 1 million/mL, trehalose 3.3%, barely visible, very small clumps
  time at which some clumping was observed: 20 min
[1]; Donor1 cells, 1 million/mL, trehalose 3.3% in final preparation
  clumps after 80 minutes: no clumps formed
[1]; [3]
  clumps after 80 minutes: a few stringy clumps
  time at which small clumps began to form: 20 min
[1]; [4]
  clumps after 80 minutes: only several clumps and they remained small
  time at which small clumps began to form: 20 min
[1]; Donor3 cells, 1 million/mL, trehalose 3.3%
  clumps after 80 minutes: only several very small clumps and they were still barely visible
[1]; Donor3 cells, 1 million/mL, trehalose 3.3%, clumps very small and barely visible
  time at which clumps began to form: 20 min
[1]; [5]
  reduction of cell clumping as compared to saline alone: greatly reduces clumping
  size/appearance of clumps present: tiny generally spheroid particles barely visible to the human eye
[2]; Donor1 cells, end of clumping experiment, trehalose 3.3%, hydroxyethyl starch 25% in final preparation
  viability by trypan blue staining: 94%
[2]; summary, after exposure for an estimated duration of cell infusion
  cell viability: above 90%
